Experiment [1] concerns the target T1, endogenous full-length progesterone receptor (Homo sapiens, UniProt P06401).
T1 sequence (P06401 1-933): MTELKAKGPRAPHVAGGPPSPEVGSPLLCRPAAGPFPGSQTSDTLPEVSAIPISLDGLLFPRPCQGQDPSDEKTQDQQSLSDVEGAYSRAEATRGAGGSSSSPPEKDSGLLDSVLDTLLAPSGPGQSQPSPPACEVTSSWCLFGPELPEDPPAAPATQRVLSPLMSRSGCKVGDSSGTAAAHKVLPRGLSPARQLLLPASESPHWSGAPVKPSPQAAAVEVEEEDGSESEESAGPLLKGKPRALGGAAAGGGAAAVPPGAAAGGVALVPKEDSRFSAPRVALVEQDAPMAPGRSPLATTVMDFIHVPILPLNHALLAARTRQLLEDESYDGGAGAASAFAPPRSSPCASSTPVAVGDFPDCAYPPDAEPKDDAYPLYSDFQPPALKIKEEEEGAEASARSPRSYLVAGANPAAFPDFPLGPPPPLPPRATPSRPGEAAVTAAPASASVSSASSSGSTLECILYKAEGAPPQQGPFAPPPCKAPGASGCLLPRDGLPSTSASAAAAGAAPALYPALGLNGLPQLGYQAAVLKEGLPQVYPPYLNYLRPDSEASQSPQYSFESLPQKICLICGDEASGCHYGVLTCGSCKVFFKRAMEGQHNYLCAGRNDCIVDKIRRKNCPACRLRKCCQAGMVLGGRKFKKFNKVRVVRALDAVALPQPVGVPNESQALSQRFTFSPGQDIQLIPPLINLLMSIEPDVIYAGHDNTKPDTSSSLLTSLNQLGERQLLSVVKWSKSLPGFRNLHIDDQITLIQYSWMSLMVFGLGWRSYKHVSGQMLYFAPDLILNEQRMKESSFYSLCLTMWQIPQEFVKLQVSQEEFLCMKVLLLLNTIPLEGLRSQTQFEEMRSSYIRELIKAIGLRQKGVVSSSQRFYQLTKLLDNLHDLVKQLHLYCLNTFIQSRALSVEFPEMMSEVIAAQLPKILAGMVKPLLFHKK
Conditions: Wang et al. 1994; cited from earlier work.

The next experiment has as its system rat CNS stem cells. Kind of experiment: Doubling time of rat CNS stem cells in N2 medium with bFGF. It counts as cell-based. The following applies: bFGF as sole mitogen. As for the experimental part:
(§1) The doubling time for human CNS stem cells in N2 medium with bFGF as the sole mitogen is approximately 60 hours which is markedly slower than 24 hours for rat CNS stem cells under the identical culture conditions. This may be due to a species difference in certain cell-autonomous properties of the cells such as a difference in DNA replication rate or in other mitotic phases, G1 or G2, of the cell cycle. We investigated other factors to accelerate the mitotic rate of human CNS stem cells.

For experiment [2], the system named is MycER-expressing CNS stem cells. As to the kind of experiment: Growth of MycER-expressing human CNS stem cells in different mitogens. Format: cell-based. Here is the method:
The same human CNS stem cell preparation was also subjected to MycER-retrovirus infection and grown in bFGF alone or in bFGF and EGF. […] As with the unmodified parent cells, the MycER cells also retained a 60 hour doubling time in bFGF alone. […] In the absence of MycER expression, the same three conditions yielded a similar pattern of growth, but with less stability.

The test system of a further experiment is human CNS stem cells. Kind of experiment: Mitotic rate (24-hour BrdU incorporation) and doubling time of human CNS stem cells with growth factors. Format: cell-based. Conditions: N2 medium, factor supplied daily. Here is the method:
as §1
Many purified recombinant human growth factors were tested for the ability to enhance the mitogenic activity of bFGF. The mitotic rate of human CNS stem cells was assessed by measuring the proportion of the cells which have incorporated the mitotic label, bromodeoxyuridine (BrdU), during a 24-hour period. Each growth factor was supplied daily to the culture in addition to bFGF. Only the combination of bFGF+EGF and bFGF+TGFα (transforming growth factor-alpha) accelerated beyond the bFGF-induced mitotic rate of the human CNS stem cells. In both conditions, the doubling time of the cells […] 1.5 times to 40 hours over bFGF alone. Combination of bFGF and fetal bovine serum at 1% or at 10% also accelerated the BrdU-incorporation rate of bFGF-induced mitotic rate of CNS stem cells to a similar rate. • 2. Resistance of CNS Stem Cells Against Spontaneous Differentiation
A general note: Uptake of a labelled nucleoside into DNA is a usual measure of proliferation.

For the molecule `CC#C[C@]1(O)CC[C@H]2[C@@H]3CCC4=CC(=O)CCC4=C3[C@@H](c3ccc(N(C)C)cc3)C[C@@]21C` [RU38486], the “activation of full-length receptor” value in experiment [1] is recorded as “does not activate”.
Turning to “bFGF: basic fibroblast growth factor, mitogen for CNS stem cells”, the doubling time in the experiment with rat CNS stem cells is 24 h; in experiment [2], 60 h; in the experiment on human CNS stem cells it was “approximately 60 hours”.

Values taken from patent US9465025B2, “Stable neural stem cell lines” (Neuralstem, Inc., priority 1996, dated 2016).
